Experimental data published in patent publication US10844077B2, “Thiazolyl-containing compounds for treating proliferative diseases” (Dana-Farber Cancer Institute, Inc., priority 2014, dated 2020).
Like-named read-outs stand apart in the source and are kept apart here.

How the values were obtained:
Format in all cases: binding
broad panel of kinases [1] = molecular target: broad panel of kinases (Homo sapiens, UniProt Q6DT37); settings: DMPK2; 1 μM
broad panel of kinases [2] = molecular target: broad panel of kinases (Homo sapiens, UniProt P51813); settings: BMX; 1 μM
broad panel of kinases [3] = molecular target: broad panel of kinases (Homo sapiens, UniProt Q13546); settings: RIPK1; 1 μM
broad panel of kinases [4] = molecular target: broad panel of kinases (Homo sapiens, UniProt O14976); settings: GAK; 1 μM
broad panel of kinases (Homo sapiens, UniProt O14976), sequence (O14976 2-1311 limits assumed): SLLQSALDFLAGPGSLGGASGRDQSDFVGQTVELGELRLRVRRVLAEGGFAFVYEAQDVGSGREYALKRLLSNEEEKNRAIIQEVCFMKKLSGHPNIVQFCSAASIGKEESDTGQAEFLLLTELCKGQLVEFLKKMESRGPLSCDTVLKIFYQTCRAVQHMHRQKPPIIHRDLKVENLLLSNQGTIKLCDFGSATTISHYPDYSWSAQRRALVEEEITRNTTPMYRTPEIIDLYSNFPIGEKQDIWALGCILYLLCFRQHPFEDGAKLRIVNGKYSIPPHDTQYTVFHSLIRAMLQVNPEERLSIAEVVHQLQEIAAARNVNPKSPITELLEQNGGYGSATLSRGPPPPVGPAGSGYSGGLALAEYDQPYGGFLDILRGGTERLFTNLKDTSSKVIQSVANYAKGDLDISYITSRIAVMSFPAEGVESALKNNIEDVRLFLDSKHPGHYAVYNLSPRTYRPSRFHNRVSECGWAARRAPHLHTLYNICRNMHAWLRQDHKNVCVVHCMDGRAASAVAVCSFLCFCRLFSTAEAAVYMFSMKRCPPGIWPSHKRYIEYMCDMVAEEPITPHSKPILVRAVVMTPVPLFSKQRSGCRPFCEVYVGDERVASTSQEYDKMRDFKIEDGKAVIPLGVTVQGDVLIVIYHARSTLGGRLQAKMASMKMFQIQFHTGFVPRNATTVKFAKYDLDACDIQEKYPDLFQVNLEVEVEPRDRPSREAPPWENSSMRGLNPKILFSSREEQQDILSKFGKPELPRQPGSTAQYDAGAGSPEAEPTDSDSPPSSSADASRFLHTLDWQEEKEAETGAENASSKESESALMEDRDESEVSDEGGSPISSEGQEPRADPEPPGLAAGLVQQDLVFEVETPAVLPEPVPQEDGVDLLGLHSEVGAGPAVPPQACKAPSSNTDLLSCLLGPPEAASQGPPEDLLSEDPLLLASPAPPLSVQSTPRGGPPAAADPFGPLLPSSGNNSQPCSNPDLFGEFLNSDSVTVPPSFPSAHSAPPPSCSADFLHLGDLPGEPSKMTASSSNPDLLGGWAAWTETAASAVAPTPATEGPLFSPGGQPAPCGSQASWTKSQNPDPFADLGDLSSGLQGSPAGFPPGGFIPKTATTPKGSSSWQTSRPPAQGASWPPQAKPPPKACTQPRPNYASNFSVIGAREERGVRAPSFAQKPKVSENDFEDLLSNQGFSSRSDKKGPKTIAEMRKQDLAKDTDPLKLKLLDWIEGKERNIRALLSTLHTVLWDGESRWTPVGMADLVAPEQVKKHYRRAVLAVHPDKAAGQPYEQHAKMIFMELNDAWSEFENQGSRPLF

broad panel of kinases [5] = molecular target: broad panel of kinases (Homo sapiens, UniProt Q9UIK4); settings: DAPK2; 1 μM
broad panel of kinases [6] = molecular target: broad panel of kinases (Homo sapiens, UniProt O95835); settings: LATS1; 1 μM
broad panel of kinases [7] = molecular target: broad panel of kinases (Homo sapiens, UniProt P53778); settings: p38-gamma; 1 μM
broad panel of kinases [8] = molecular target: broad panel of kinases (Homo sapiens, UniProt Q07002); settings: PCTK3; 1 μM
broad panel of kinases [9] = molecular target: broad panel of kinases (Homo sapiens, UniProt P42685); settings: FRK; 1 μM
broad panel of kinases [10] = molecular target: broad panel of kinases (Homo sapiens, UniProt P50750); settings: CDK9; 1 μM
broad panel of kinases [11] = molecular target: broad panel of kinases (Homo sapiens, UniProt Q9Y6E0); settings: MST3; 1 μM
broad panel of kinases [12] = molecular target: broad panel of kinases (Homo sapiens, UniProt Q9H422); settings: HIPK3; 1 μM
broad panel of kinases [13] = molecular target: broad panel of kinases (Homo sapiens, UniProt Q5S007, G2019S); settings: LRRK2(G2019S); 1 μM
broad panel of kinases [14] = molecular target: broad panel of kinases (Homo sapiens, UniProt O96017); settings: CHEK2; 1 μM
broad panel of kinases [15] = molecular target: broad panel of kinases (Homo sapiens, UniProt P36888, K663Q); settings: FLT3(K663Q); 1 μM
broad panel of kinases [16] = molecular target: broad panel of kinases (Homo sapiens, UniProt Q96NX5); settings: CAMK1G; 1 μM
broad panel of kinases [17] = molecular target: broad panel of kinases (Homo sapiens, UniProt O15530); settings: PDPK1; 1 μM
broad panel of kinases [18] = molecular target: broad panel of kinases (Homo sapiens, UniProt O75116); settings: ROCK2; 1 μM
broad panel of kinases [19] = molecular target: broad panel of kinases (Homo sapiens, UniProt P51451); settings: BLK; 1 μM
broad panel of kinases (Homo sapiens, UniProt P51451), sequence (P51451 2-505 limits assumed): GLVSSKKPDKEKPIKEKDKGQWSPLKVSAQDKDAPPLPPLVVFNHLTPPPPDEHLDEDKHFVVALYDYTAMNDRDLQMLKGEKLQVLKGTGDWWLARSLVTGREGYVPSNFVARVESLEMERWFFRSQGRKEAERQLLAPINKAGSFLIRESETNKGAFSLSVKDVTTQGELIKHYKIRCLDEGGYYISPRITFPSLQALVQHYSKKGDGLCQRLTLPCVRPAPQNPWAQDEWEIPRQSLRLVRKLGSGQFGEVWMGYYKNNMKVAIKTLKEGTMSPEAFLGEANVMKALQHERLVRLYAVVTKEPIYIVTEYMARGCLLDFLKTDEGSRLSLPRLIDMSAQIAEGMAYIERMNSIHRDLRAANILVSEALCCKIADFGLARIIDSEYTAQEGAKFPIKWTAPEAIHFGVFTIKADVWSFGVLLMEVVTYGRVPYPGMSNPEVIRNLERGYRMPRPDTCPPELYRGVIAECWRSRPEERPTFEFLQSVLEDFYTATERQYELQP

broad panel of kinases [20] = molecular target: broad panel of kinases (Homo sapiens, UniProt Q9H093); settings: SNARK; 1 μM
broad panel of kinases [21] = molecular target: broad panel of kinases (Homo sapiens, UniProt P54764); settings: EPHA4; 1 μM
broad panel of kinases (Homo sapiens, UniProt P54764), sequence (P54764 20-986 limits assumed): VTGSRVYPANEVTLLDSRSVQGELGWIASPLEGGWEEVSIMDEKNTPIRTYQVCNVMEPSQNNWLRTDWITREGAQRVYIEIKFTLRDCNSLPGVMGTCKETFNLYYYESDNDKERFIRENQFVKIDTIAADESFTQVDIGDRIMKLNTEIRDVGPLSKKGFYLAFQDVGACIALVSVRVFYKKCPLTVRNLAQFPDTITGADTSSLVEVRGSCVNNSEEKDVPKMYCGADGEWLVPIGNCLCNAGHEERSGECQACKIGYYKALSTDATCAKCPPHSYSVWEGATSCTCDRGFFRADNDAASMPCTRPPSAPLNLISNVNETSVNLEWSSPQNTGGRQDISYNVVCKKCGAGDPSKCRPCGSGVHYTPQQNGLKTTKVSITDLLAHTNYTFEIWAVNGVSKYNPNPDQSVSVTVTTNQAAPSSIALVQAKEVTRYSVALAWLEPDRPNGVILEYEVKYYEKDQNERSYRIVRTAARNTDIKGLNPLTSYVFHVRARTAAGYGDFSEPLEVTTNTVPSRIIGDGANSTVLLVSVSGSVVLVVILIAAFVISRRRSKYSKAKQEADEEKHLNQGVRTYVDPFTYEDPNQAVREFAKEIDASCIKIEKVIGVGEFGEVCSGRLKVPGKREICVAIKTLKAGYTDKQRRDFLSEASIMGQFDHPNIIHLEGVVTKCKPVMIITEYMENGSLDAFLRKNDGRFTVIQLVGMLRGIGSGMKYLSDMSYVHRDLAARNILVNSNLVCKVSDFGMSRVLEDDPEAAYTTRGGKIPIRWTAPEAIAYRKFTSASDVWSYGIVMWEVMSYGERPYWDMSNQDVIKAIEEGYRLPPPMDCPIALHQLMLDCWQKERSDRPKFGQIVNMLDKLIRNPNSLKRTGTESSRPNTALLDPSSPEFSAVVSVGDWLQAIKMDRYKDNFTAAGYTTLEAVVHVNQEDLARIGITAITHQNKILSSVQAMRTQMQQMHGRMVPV

broad panel of kinases [22] = molecular target: broad panel of kinases (Homo sapiens, UniProt P04629); settings: TRKA; 1 μM
broad panel of kinases [23] = molecular target: broad panel of kinases (Homo sapiens, UniProt P49761); settings: CLK3; 1 μM
broad panel of kinases [24] = molecular target: broad panel of kinases (Homo sapiens, UniProt P00533, T790M); settings: EGFR(T790M); 1 μM
broad panel of kinases [25] = molecular target: broad panel of kinases (Homo sapiens, UniProt Q8TD19); settings: NEK9; 1 μM
broad panel of kinases (Homo sapiens, UniProt Q8TD19), sequence (Q8TD19 2-979 limits assumed): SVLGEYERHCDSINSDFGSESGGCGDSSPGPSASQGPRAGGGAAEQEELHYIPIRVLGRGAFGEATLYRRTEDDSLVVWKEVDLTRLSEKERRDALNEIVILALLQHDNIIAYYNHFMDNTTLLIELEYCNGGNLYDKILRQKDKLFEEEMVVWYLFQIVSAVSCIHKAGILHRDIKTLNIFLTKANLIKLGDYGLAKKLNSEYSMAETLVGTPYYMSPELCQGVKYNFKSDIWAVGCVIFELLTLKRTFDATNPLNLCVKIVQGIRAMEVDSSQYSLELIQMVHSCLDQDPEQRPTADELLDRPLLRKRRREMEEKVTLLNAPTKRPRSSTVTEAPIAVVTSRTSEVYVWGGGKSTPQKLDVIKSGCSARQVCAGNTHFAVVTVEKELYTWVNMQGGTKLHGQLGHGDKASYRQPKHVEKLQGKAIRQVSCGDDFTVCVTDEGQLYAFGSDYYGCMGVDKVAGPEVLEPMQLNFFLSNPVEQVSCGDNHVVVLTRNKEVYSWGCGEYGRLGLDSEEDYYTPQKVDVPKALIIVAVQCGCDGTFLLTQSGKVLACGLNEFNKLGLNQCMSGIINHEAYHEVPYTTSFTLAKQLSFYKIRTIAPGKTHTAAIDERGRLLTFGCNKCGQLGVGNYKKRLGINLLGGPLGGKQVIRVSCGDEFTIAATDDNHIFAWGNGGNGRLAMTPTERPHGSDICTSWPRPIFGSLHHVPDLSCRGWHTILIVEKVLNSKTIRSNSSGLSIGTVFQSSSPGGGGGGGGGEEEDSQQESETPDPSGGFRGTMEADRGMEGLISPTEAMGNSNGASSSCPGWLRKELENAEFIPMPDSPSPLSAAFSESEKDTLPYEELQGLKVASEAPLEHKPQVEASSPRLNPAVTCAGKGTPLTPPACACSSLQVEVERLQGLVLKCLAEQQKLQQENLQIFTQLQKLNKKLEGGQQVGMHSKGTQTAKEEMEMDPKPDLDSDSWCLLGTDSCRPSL

broad panel of kinases [26] = molecular target: broad panel of kinases (Homo sapiens, UniProt P35590); settings: TIE1; 1 μM
broad panel of kinases [27] = molecular target: broad panel of kinases (Homo sapiens, UniProt P27448); settings: MARK3; 1 μM
broad panel of kinases [28] = molecular target: broad panel of kinases (Homo sapiens, UniProt Q8WTQ7); settings: GRK7; 1 μM
broad panel of kinases [29] = molecular target: broad panel of kinases (Homo sapiens, UniProt Q13627); settings: DYRK1A; 1 μM
broad panel of kinases [30] = molecular target: broad panel of kinases (Homo sapiens, UniProt Q9BYP7); settings: WNK3; 1 μM
broad panel of kinases [31] = molecular target: broad panel of kinases (Homo sapiens, UniProt Q00532); settings: CDKL1; 1 μM
broad panel of kinases [32] = molecular target: broad panel of kinases (Homo sapiens, UniProt P49759); settings: CLK1; 1 μM
broad panel of kinases [33] = molecular target: broad panel of kinases (Homo sapiens, UniProt P17612); settings: PKAC-alpha; 1 μM
broad panel of kinases [34] = molecular target: broad panel of kinases (Homo sapiens, UniProt Q13555); settings: CAMK2G; 1 μM
broad panel of kinases [35] = molecular target: broad panel of kinases (Homo sapiens, UniProt P00533, L858R); settings: EGFR(L858R); 1 μM
broad panel of kinases (Homo sapiens, UniProt P00533, L858R), sequence (P00533 25-1210 L858R limits assumed): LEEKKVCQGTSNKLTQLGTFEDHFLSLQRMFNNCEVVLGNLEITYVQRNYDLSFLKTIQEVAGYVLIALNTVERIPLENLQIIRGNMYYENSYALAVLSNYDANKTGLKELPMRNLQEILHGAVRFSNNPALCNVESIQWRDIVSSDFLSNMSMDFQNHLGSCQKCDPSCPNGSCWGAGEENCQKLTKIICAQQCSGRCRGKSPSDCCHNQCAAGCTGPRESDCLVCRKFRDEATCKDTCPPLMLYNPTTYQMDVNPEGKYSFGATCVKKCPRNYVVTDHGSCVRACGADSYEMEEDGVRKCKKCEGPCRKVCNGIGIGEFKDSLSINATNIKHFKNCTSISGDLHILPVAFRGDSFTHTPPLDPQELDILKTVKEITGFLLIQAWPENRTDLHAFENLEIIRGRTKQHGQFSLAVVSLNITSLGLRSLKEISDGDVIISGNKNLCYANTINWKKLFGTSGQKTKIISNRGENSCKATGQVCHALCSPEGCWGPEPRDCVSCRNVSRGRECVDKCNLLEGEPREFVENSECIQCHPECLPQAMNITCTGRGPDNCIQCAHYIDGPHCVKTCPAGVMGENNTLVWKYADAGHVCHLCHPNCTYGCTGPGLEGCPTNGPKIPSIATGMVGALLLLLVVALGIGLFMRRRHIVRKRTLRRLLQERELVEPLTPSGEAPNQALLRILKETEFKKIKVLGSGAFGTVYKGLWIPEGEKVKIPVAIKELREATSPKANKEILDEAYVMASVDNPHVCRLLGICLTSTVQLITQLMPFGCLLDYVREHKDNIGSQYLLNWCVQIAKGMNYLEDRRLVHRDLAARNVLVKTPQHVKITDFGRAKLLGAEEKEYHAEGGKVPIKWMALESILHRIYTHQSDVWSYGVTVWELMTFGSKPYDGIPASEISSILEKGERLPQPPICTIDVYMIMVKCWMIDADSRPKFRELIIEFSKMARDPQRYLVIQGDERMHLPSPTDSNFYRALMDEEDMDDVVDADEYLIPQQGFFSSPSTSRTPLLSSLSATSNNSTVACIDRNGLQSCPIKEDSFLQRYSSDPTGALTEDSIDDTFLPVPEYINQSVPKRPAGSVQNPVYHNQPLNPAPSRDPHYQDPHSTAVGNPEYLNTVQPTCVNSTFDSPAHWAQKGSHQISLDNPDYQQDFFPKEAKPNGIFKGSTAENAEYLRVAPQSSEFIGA

broad panel of kinases [36] = molecular target: broad panel of kinases (Homo sapiens, UniProt Q9HBH9); settings: MKNK2; 1 μM
broad panel of kinases [37] = molecular target: broad panel of kinases (Homo sapiens, UniProt P36888); settings: 1 μM

Row | Structure (SMILES) | percent of control binding remaining (lower = stronger binding) (broad panel of kinases [1]) [%] | percent of control binding remaining (lower = stronger binding) (broad panel of kinases [2]) [%] | percent of control binding remaining (lower = stronger binding) (broad panel of kinases [3]) [%] | percent of control binding remaining (lower = stronger binding) (broad panel of kinases [4]) [%] | percent of control binding remaining (lower = stronger binding) (broad panel of kinases [5]) [%] | percent of control binding remaining (lower = stronger binding) (broad panel of kinases [6]) [%] | percent of control binding remaining (lower = stronger binding) (broad panel of kinases [7]) [%] | percent of control binding remaining (lower = stronger binding) (broad panel of kinases [8]) [%] | percent of control binding remaining (lower = stronger binding) (broad panel of kinases [9]) [%] | percent of control binding remaining (lower = stronger binding) (broad panel of kinases [10]) [%] | percent of control binding remaining (lower = stronger binding) (broad panel of kinases [11]) [%] | percent of control binding remaining (lower = stronger binding) (broad panel of kinases [12]) [%] | percent of control binding remaining (lower = stronger binding) (broad panel of kinases [13]) [%] | percent of control binding remaining (lower = stronger binding) (broad panel of kinases [14]) [%] | percent of control binding remaining (lower = stronger binding) (broad panel of kinases [15]) [%] | percent of control binding remaining (lower = stronger binding) (broad panel of kinases [16]) [%] | percent of control binding remaining (lower = stronger binding) (broad panel of kinases [17]) [%] | percent of control binding remaining (lower = stronger binding) (broad panel of kinases [18]) [%] | percent of control binding remaining (lower = stronger binding) (broad panel of kinases [19]) [%] | percent of control binding remaining (lower = stronger binding) (broad panel of kinases [20]) [%] | other results
1 | C=CC(=O)N1CC[C@H](Nc2nc(CN3CCOCC3)cc(Nc3ncc(C(=O)Nc4c(C)cccc4C)s3)n2)C1 [Example I-2] | 51 | 3.6 | 100 | 11 | 86 | 100 | 100 | 99 | 0.1 | 90 | 100 | 95 | 100 | 97 | 96 | 89 | 98 | 95 | 0 | 100 | percent of control binding remaining (lower = stronger binding) (broad panel of kinases [21]): 0%; percent of control binding remaining (lower = stronger binding) (broad panel of kinases [22]): 98%; percent of control binding remaining (lower = stronger binding) (broad panel of kinases [23]): 100%; percent of control binding remaining (lower = stronger binding) (broad panel of kinases [24]): 48%; percent of control binding remaining (lower = stronger binding) (broad panel of kinases [25]): 100%; percent of control binding remaining (lower = stronger binding) (broad panel of kinases [26]): 100%; percent of control binding remaining (lower = stronger binding) (broad panel of kinases [27]): 94%; percent of control binding remaining (lower = stronger binding) (broad panel of kinases [28]): 97%; percent of control binding remaining (lower = stronger binding) (broad panel of kinases [29]): 100%; percent of control binding remaining (lower = stronger binding) (broad panel of kinases [30]): 100%; percent of control binding remaining (lower = stronger binding) (broad panel of kinases [31]): 100%; percent of control binding remaining (lower = stronger binding) (broad panel of kinases [32]): 92%; percent of control binding remaining (lower = stronger binding) (broad panel of kinases [33]): 85%; percent of control binding remaining (lower = stronger binding) (broad panel of kinases [34]): 91%; percent of control binding remaining (lower = stronger binding) (broad panel of kinases [35]): 0%; percent of control binding remaining (lower = stronger binding) (broad panel of kinases [36]): 100%; percent of control binding remaining (lower = stronger binding) (broad panel of kinases [37]; FLT3-autoinhibited): 100%; percent of control binding remaining (lower = stronger binding) (broad panel of kinases [37]; FLT3): 100%
2 | C=CC(=O)N1CC[C@H](Nc2nccc(Nc3ncc(C(=O)Nc4c(C)cccc4C)s3)n2)C1 [Example I-3] | 66 | 4.9 | 100 | 11 | 80 | 93 | 100 | 92 | 0.1 | 75 | 100 | 100 | 99 | 97 | 100 | 97 | 87 | 75 | 0 | 100 | percent of control binding remaining (lower = stronger binding) (broad panel of kinases [21]): 0%; percent of control binding remaining (lower = stronger binding) (broad panel of kinases [22]): 99%; percent of control binding remaining (lower = stronger binding) (broad panel of kinases [23]): 95%; percent of control binding remaining (lower = stronger binding) (broad panel of kinases [24]): 56%; percent of control binding remaining (lower = stronger binding) (broad panel of kinases [25]): 100%; percent of control binding remaining (lower = stronger binding) (broad panel of kinases [26]): 100%; percent of control binding remaining (lower = stronger binding) (broad panel of kinases [27]): 57%; percent of control binding remaining (lower = stronger binding) (broad panel of kinases [28]): 96%; percent of control binding remaining (lower = stronger binding) (broad panel of kinases [29]): 100%; percent of control binding remaining (lower = stronger binding) (broad panel of kinases [30]): 100%; percent of control binding remaining (lower = stronger binding) (broad panel of kinases [31]): 93%; percent of control binding remaining (lower = stronger binding) (broad panel of kinases [32]): 100%; percent of control binding remaining (lower = stronger binding) (broad panel of kinases [33]): 85%; percent of control binding remaining (lower = stronger binding) (broad panel of kinases [34]): 97%; percent of control binding remaining (lower = stronger binding) (broad panel of kinases [35]): 0.75%; percent of control binding remaining (lower = stronger binding) (broad panel of kinases [36]): 98%; percent of control binding remaining (lower = stronger binding) (broad panel of kinases [37]; FLT3-autoinhibited): 100%; percent of control binding remaining (lower = stronger binding) (broad panel of kinases [37]; FLT3): 84%
